According to patent publication US9920010B2, “CXCR7 receptor modulators” (IDORSIA PHARMACEUTICALS LTD, priority 2013, dated 2018):

Target: T1, CXCR7 (Homo sapiens, UniProt P25106)
T1 construct: host or cells: CHO-K1 (PathHunter CHO-K1 CXCR7 b-arrestin cell line, stably transfected)
Experiment: PathHunter CHO-K1 CXCR7 b-arrestin recruitment assay (CXCR7 agonistic activity)
Assay type: cell-based
Conditions: PathHunter CHO-K1 CXCR7 b-arrestin cell line
Summary of the method: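 Stable CHO-K1 line with C-terminally ProLink-tagged CXCR7 and β-arrestin 2–EA fusion; β-arrestin recruitment restores β-gal activity, read by chemiluminescence after 1 h RT detection. Cells seeded 24 h, starved in OPTIMEM 3–4 h, exposed to compounds 90 min at 37 °C in HBSS/HEPES/BSA. Geometric-mean EC50 from repeated measurements.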

T1 sequence (P25106 whole entry): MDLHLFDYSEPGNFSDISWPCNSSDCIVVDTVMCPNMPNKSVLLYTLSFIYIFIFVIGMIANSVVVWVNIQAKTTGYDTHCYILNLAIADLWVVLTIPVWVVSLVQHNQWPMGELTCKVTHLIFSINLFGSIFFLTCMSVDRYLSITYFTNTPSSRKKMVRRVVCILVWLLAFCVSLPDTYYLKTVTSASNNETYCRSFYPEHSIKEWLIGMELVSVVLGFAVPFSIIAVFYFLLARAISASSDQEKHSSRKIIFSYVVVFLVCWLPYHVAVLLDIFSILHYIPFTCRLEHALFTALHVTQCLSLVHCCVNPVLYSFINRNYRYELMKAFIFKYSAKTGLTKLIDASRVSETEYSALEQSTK
T1 sequence (P32121 whole entry partner): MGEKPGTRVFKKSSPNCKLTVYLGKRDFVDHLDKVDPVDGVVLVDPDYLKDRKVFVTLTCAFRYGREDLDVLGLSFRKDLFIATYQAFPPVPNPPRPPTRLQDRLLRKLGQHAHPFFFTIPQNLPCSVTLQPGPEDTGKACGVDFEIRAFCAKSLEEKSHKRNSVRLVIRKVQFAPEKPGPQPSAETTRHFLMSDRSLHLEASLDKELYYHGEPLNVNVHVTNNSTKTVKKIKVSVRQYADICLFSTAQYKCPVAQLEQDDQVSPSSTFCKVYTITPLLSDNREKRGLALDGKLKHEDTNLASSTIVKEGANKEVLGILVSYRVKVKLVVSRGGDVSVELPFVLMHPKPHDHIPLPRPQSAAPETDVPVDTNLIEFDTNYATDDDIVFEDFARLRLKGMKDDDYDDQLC

SMILES	EC50
CN(CCF)CCN(Cc1ccccc1C(F)(F)F)C(=O)CNc1cccc2c1CCN(CC1CC1)C2 [Example 244, 2-(2-Cyclopropylmethyl-1,2,3,4-tetrahydro-isoquinolin-5-ylamino)-N-{2-[(2-fluoro-ethyl)-methyl-amino]-ethyl}-N-(2-trifluoromethyl-benzyl)-acetamide]	3 nM
C=CCN(C)CCN(Cc1ccccc1C(F)(F)F)C(=O)CNc1cccc2c1CCN(CC1CC1)C2 [Example 245, N-[2-(Allyl-methyl-amino)-ethyl]-2-(2-cyclopropylmethyl-1,2,3,4-tetrahydro-isoquinolin-5-ylamino)-N-(2-trifluoromethyl-benzyl)-acetamide]	3 nM
C#CCN(C)CCN(Cc1ccccc1C(F)(F)F)C(=O)CNc1cccc2c1CCN(CC1CC1)C2 [Example 246, 2-(2-Cyclopropylmethyl-1,2,3,4-tetrahydro-isoquinolin-5-ylamino)-N-[2-(methyl-prop-2-ynyl-amino)-ethyl]-N-(2-trifluoromethyl-benzyl)-acetamide]	14 nM
O=C(CNc1cccc2c1CCN(CC1CC1)C2)N(Cc1cncs1)Cc1ccccc1C(F)(F)F [Example 247, 2-(2-Cyclopropylmethyl-1,2,3,4-tetrahydro-isoquinolin-5-ylamino)-N-thiazol-5-ylmethyl-N-(2-trifluoromethyl-benzyl)-acetamide]	29 nM
O=C(CNc1cccc2c1CCN(CC1CC1)C2)N(CCN1CCC(F)(F)CC1)Cc1ccccc1Cl [Example 248, N-(2-Chloro-benzyl)-2-(2-cyclopropylmethyl-1,2,3,4-tetrahydro-isoquinolin-5-ylamino)-N-[2-(4,4-difluoro-piperidin-1-yl)-ethyl]-acetamide]	32 nM
O=C(CNc1cccc2c1CCN(CC1CC1)C2)N(CCN1CCC(F)(F)CC1)Cc1ncccc1Cl [Example 249, N-(3-Chloro-pyridin-2-ylmethyl)-2-(2-cyclopropylmethyl-1,2,3,4-tetrahydro-isoquinolin-5-ylamino)-N-[2-(4,4-difluoro-piperidin-1-yl)-ethyl]-acetamide]	12 nM
CC(C)(O)CN(Cc1ncccc1Cl)C(=O)CNc1cccc2c1CCN(CC1CC1)C2 [Example 251, N-(3-Chloro-pyridin-2-ylmethyl)-2-(2-cyclopropylmethyl-1,2,3,4-tetrahydro-isoquinolin-5-ylamino)-N-(2-hydroxy-2-methyl-propyl)-acetamide]	24 nM
CC(C)(C)OC(=O)N1CCC(N(Cc2ccccc2C(F)(F)F)C(=O)CNc2cccc3c2CCN(CC2CC2)C3)CC1 [Example 252, 4-[[2-(2-Cyclopropylmethyl-1,2,3,4-tetrahydro-isoquinolin-5-ylamino)-acetyl]-(2-trifluoromethyl-benzyl)-amino]-piperidine-1-carboxylic acid tert-butyl ester]	426 nM
CC(C)(C)OC(=O)N1CCC(CN(Cc2ccccc2C(F)(F)F)C(=O)CNc2cccc3c2CCN(CC2CC2)C3)C1 (centres unmarked) [Example 253, 3-{[[2-(2-Cyclopropylmethyl-1,2,3,4-tetrahydro-isoquinolin-5-ylamino)-acetyl]-(2-trifluoromethyl-benzyl)-amino]-methyl}-pyrrolidine-1-carboxylic acid tert-butyl ester]	42 nM
CC(C)(C)OC(=O)N1CCC(N(Cc2ccccc2C(F)(F)F)C(=O)CNc2cccc3c2CCN(CC2CC2)C3)C1 (centres unmarked) [Example 254, 3-[[2-(2-Cyclopropylmethyl-1,2,3,4-tetrahydro-isoquinolin-5-ylamino)-acetyl]-(2-trifluoromethyl-benzyl)-amino]-pyrrolidine-1-carboxylic acid tert-butyl ester]	161 nM
CN(C)CCN(Cc1ccncn1)C(=O)CNc1cccc2c1CCN(CC1CC1)C2 [Example 255, 2-(2-Cyclopropylmethyl-1,2,3,4-tetrahydro-isoquinolin-5-ylamino)-N-(2-dimethylamino-ethyl)-N-pyrimidin-4-ylmethyl-acetamide]	390 nM
